Test results as given in ChEMBL document CHEMBL4138077, “Rational design, synthesis and biological screening of triazine-triazolopyrimidine hybrids as multitarget anti-Alzheimer agents” (Eur J Med Chem, 2017).
Calls of active or inactive are those of the source. The calls are words filed in the database; no cut-off is given here.

Legend:
[1] = target: T1, Amyloid-beta precursor protein (Homo sapiens, UniProt P05067)
Description: Inhibition of HFIP-pretreated amyloid beta (1 to 42 residues) (unknown origin) self aggregation after 24 hrs by ThT-based fluorometric method

Cholinesterase = Cholinesterase (Equus caballus, UniProt P81908); experiment: Inhibition of equine serum BuChE using butyrylthiocholine iodide as substrate preincubated for 5 mins followed by substrate addition measured after 2 mins by spectroscopy based Ellman's method
Cholinesterase, sequence (P81908 whole entry, the tested form may be a part): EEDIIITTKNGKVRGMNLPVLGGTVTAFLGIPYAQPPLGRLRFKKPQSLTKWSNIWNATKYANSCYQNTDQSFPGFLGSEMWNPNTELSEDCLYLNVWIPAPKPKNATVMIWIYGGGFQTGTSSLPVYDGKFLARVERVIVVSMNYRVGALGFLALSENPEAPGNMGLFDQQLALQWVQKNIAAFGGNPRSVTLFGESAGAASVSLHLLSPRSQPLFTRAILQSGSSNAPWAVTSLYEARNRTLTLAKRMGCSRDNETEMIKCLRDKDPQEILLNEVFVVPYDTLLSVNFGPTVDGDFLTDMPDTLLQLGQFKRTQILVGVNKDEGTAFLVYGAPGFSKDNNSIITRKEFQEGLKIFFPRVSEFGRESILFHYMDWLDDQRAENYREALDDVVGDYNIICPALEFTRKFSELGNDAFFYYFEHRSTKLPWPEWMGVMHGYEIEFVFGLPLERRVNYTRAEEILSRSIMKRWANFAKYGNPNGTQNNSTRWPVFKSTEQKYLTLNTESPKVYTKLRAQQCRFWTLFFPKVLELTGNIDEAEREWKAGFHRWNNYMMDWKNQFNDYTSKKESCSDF

[2] = target: T1, Amyloid-beta precursor protein; experiment: Inhibition of HFIP-pretreated amyloid beta (1 to 42 residues) (unknown origin) self aggregation at 25 uM after 24 hrs by ThT-based fluorometric method
Acetylcholinesterase [3] = target: T2, Acetylcholinesterase (Electrophorus electricus, UniProt O42275); experiment: Inhibition of electric eel AChE using acetylthiocholine iodide as substrate preincubated for 5 mins followed by substrate addition measured after 2 mins by spectroscopy based Ellman's method
T2 sequence (O42275 whole entry): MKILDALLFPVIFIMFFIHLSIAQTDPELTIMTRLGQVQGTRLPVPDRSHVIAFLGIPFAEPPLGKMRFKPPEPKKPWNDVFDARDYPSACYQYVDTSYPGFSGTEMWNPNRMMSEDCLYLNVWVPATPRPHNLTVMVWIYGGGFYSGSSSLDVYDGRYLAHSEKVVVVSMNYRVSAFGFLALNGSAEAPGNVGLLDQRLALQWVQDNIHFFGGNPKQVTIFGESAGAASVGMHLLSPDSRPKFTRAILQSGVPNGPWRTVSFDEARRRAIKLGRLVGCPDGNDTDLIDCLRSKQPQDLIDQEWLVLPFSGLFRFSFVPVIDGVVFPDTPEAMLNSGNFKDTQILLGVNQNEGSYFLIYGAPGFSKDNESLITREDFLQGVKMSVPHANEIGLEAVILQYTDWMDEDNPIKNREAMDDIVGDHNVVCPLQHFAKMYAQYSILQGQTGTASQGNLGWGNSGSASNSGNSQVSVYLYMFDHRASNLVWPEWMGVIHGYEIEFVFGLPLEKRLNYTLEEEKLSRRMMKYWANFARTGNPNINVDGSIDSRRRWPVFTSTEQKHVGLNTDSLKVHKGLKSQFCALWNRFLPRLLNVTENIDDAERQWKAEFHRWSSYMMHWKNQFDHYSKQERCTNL

[4] = target: T1, Amyloid-beta precursor protein; experiment: Binding affinity to amyloid beta (1 to 42) (unknown origin) assessed as decrease in beta sheet and random structure conformation at 10 uM after 12 hrs by CD spectroscopic method
[5] = Metal chelating activity of the compound assessed as mole fraction of compound causing 1:1 stoichiometry for formation of Cu2+-compound complex at 50 uM after 30 mins by UV-vis spectrophotometric method
Acetylcholinesterase [6] = target: T2, Acetylcholinesterase; experiment: Mixed-type inhibition of electric eel AChE using varying levels of acetylthiocholine iodide as substrate preincubated for 15 mins followed by substrate addition by Lineweaver-Burk plot analysis
[7] = target: T1, Amyloid-beta precursor protein; experiment: Binding affinity to amyloid beta (1 to 42) (unknown origin) assessed as increase in alpha helix conformation at 10 uM after 12 hrs by CD spectroscopic method
[8] = Metal chelating activity of the compound assessed as formation of Fe2+-compound complex by measuring change in red shift in maximum absorption at 50 uM after 30 mins by UV-vis spectrophotometric method (reference value: […] nanometer)
[9] = target: T1, Amyloid-beta precursor protein; experiment: Inhibition of amyloid beta (1 to 42) (unknown origin) fibril formation at 25 uM after 24 hrs by uranyl acetate staining based transmission electron microscopic method
[10] = Metal chelating activity of the compound assessed as formation of Zn2+-compound complex by measuring change in red shift in maximum absorption at 50 uM after 30 mins by UV-vis spectrophotometric method (reference value: […] nanometer)
[11] = Metal chelating activity assessed as inhibition of Cu2+-induced amyloid beta (1 to 42 residues) aggregation by measuring reduction in amyloid fibrils at 50 uM after 24 hrs by uranyl acetate staining based transmission electron microscopic analysis
[12] = (§1) Metal chelating activity of the compound assessed as formation of Cu2+-compound complex by measuring change in red shift in maximum absorption at 50 uM after 30 mins by UV-vis spectrophotometric method (reference value: […] nanometer)
[13] = as §1; remark: listed apart in the source
[14] = Metal chelating activity assessed as inhibition of Cu2+-induced amyloid beta (1 to 42 residues) aggregation at 50 uM after 24 hrs by thioflavin-T fluorescence assay

T1 sequence (P05067 whole entry): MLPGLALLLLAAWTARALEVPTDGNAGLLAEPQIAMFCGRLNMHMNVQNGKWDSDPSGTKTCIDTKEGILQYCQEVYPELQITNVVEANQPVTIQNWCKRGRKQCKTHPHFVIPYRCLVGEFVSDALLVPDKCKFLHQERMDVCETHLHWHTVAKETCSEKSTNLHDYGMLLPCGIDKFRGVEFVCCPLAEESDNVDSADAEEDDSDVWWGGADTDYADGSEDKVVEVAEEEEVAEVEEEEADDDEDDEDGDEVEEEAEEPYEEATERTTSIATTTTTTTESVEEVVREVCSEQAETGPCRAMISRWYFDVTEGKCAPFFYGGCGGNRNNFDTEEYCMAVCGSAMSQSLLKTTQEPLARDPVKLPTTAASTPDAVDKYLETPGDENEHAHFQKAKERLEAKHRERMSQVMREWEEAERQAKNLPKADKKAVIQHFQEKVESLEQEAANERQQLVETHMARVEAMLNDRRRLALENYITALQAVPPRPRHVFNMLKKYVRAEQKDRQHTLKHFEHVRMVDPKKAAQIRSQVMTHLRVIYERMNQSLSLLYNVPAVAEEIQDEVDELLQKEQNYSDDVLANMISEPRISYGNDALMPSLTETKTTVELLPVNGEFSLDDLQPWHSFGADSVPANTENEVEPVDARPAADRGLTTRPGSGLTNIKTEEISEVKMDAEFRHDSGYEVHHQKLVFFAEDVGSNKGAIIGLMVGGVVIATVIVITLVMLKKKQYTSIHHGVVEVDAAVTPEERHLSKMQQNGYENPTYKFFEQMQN

## Cc1ccc(Nc2nc(Cl)nc(Nc3cccc(C(F)(F)F)c3)n2)cc1
[1]
  IC50: 20700 nM
Cholinesterase
  IC50: 2090 nM
[2]
  inhibition: 64.8%
Acetylcholinesterase [3]
  IC50: 672 nM

## Fc1ccc(Nc2nc(Cl)nc(Nc3cccc(C(F)(F)F)c3)n2)c(F)c1
[1]
  IC50: 17900 nM
Cholinesterase
  IC50: 4330 nM
[2]
  inhibition: 65.2%
Acetylcholinesterase [3]
  IC50: 496 nM

## Fc1ccc(Nc2nc(Cl)nc(Nc3cccc(C(F)(F)F)c3)n2)cc1
[1]
  IC50: 18600 nM
Cholinesterase
  IC50: 2450 nM
[2]
  inhibition: 63%
Acetylcholinesterase [3]
  IC50: 526 nM

## Cc1cc(N2CCN(c3nc(Cl)nc(Nc4ccc(F)cc4)n3)CC2)n2ncnc2n1
[1]
  IC50: 15900 nM
Cholinesterase
  IC50: 930 nM
[2]
  inhibition: 64.5%
Acetylcholinesterase [3]
  IC50: 115 nM

## Cc1ccc(Nc2nc(Nc3ccc(F)c(Cl)c3)nc(N3CCN(c4cc(C)nc5ncnn45)CC3)n2)cc1
[1]
  IC50: 25000 nM
Cholinesterase
  IC50: 3780 nM
[2]
  inhibition: 49.3%
Acetylcholinesterase [3]
  IC50: 859 nM

## FC(F)(F)c1cccc(Nc2nc(NC3CC3)nc(N3CCNCC3)n2)c1
[1]
  IC50: 23500 nM
Cholinesterase
  IC50: 3650 nM
[2]
  inhibition: 58.8%
Acetylcholinesterase [3]
  IC50: 1250 nM

## COc1ccc(Nc2nc(Cl)nc(Nc3cccc(C(F)(F)F)c3)n2)cc1
[1]
  IC50: 17600 nM
Cholinesterase
  IC50: 2960 nM
[2]
  inhibition: 67.2%
Acetylcholinesterase [3]
  IC50: 591 nM

## Cc1cc(N2CCN(c3nc(Nc4cccc(C(F)(F)F)c4)nc(Nc4ccc(F)c(Cl)c4)n3)CC2)n2ncnc2n1
[1]
  IC50: 16300 nM
Cholinesterase
  IC50: 2610 nM
[2]
  inhibition: 61.7%
Acetylcholinesterase [3]
  IC50: 388 nM

## Fc1ccc(Nc2nc(Cl)nc(Nc3cccc(C(F)(F)F)c3)n2)cc1Cl
Cholinesterase
  IC50: 3980 nM
[2]
  inhibition: 46.2%
Acetylcholinesterase [3]
  IC50: 432 nM

## Cc1ccc(Nc2nc(Nc3cccc(C(F)(F)F)c3)nc(N3CCN(c4cc(C)nc5ncnn45)CC3)n2)cc1
Cholinesterase
  IC50: 1750 nM
[2]
  inhibition: 22.4%
Acetylcholinesterase [3]
  IC50: 558 nM

## Cc1cc(N2CCN(c3nc(Nc4cccc(C(F)(F)F)c4)nc(NC4CC4)n3)CC2)n2ncnc2n1
Cholinesterase
  IC50: 1900 nM
[2]
  inhibition: 44.3%
Acetylcholinesterase [3]
  IC50: 903 nM

## Cc1cc(N2CCN(c3nc(Cl)nc(Nc4cccc(C(F)(F)F)c4)n3)CC2)n2ncnc2n1
[1]
  IC50: 10400 nM
[4]
  Activity: Active
[5]
  Activity (mole fraction): > 0.9
Acetylcholinesterase [6]
  Ki: 69 nM
[7]
  Activity: Active
[8]
  Activity: Active
[9]
  inhibition: Active
[10]
  Activity: Active
Cholinesterase
  IC50: 1880 nM
[2]
  inhibition: 75.3%
[11]
  inhibition: Active
[12]
  Activity: 214 nm
[13]
  Activity: 238 nm
[14]
  inhibition: 69.7%
Acetylcholinesterase [3]
  IC50: 65 nM

## Cc1cc(N2CCN(c3nc(Nc4ccc(F)cc4)nc(Nc4cccc(C(F)(F)F)c4)n3)CC2)n2ncnc2n1
[1]
  IC50: 18300 nM
Cholinesterase
  IC50: 2490 nM
[2]
  inhibition: 54.7%
Acetylcholinesterase [3]
  IC50: 724 nM

## COc1ccc(Nc2nc(Cl)nc(N3CCN(c4cc(C)nc5ncnn45)CC3)n2)cc1
[1]
  IC50: 11500 nM
[4]
  Activity: Active
[5]
  Activity (mole fraction): 0.96
Acetylcholinesterase [6]
  Ki: 102 nM
[7]
  Activity: Active
[8]
  Activity: 234 nm
[9]
  inhibition: Active
[10]
  Activity: 236 nm
Cholinesterase
  IC50: 1520 nM
[2]
  inhibition: 68.5%
[11]
  inhibition: Active
[14]
  inhibition: 66.6%
Acetylcholinesterase [3]
  IC50: 92 nM

## COc1cc(/C=C/C(=O)CC(=O)/C=C/c2ccc(O)c(OC)c2)ccc1O
[9]
  inhibition: Active
[14]
  inhibition: 60.3%

## Cc1ccc(Nc2nc(Cl)nc(Nc3ccc(F)c(Cl)c3)n2)cc1
[1]
  IC50: 18000 nM
Cholinesterase
  IC50: 2770 nM
[2]
  inhibition: 62.5%
Acetylcholinesterase [3]
  IC50: 917 nM

## COc1ccc(Nc2nc(Cl)nc(Nc3ccc(F)c(Cl)c3)n2)cc1
[1]
  IC50: 23800 nM
Cholinesterase
  IC50: 1640 nM
[2]
  inhibition: 60.7%
Acetylcholinesterase [3]
  IC50: 705 nM

## Cc1cc(N2CCN(c3nc(Cl)nc(Nc4ccccc4F)n3)CC2)n2ncnc2n1
[1]
  IC50: 13400 nM
Cholinesterase
  IC50: 2230 nM
[2]
  inhibition: 65.8%
Acetylcholinesterase [3]
  IC50: 286 nM
